In US20080119530A1, “Method for treatment and prevention of ultraviolet light induced skin pathologies” (priority 2006, published 2008):

Tests used:
[1] = test system: primary keratinocytes; conditions: cited from earlier work
[2] = test system: Tg.AC mice; assay: UV-induced skin tumorigenesis in v-rasHa transgenic Tg.AC mice; assay type: in vivo, mouse
From the text: Animals. Homozygous v-rasHa transgenic mice on an FVB/N background were used in in vivo experiments. To obtain keratinocytes with genetic ablation of Erbb2, loxP sites were inserted flanking exon 2 of Erbb2 such that splicing from exon1 to downstream introns upon Cre recombinase expression creates a frameshift mutation. Mice were maintained in our animal facility and provided with Purina lab chow (Nestle Purina PetCare, St. Louis, Mo.) and water ad libitum. The dorsal skin was clipped one day before treatment using electric clippers (Wahl, Sterling, II) and shaved on the day of treatment with a Remington Microscreen shaver (Madison, N.C.). […] The Ultraviolet-B TL 40W/12 RS bulbs (Philips, Somerset, N.J.) used emitted approximately 30% UVA, 70% UVB and <1% UVC, with a total output of 470 μW/cm^2, as measured with radiometric photodetector probes (Newport, Irvine, Calif.). For tumor experiments, homozygous Tg.AC mice were treated and exposed twice with an interval of 7 d. Tumor number was counted and tumor volume measured weekly using calipers. Skin-fold thickness was measured using calipers (Mitutoyo, Aurora, Ill.) to lightly pinch the dorsal skin. All animal procedures were performed in accordance with American Association of Laboratory Animal Care guidelines and approved by Creighton University's Institutional Animal Care and Use Committee.
Statistical methods. The tumor experiment was analyzed using two-way ANOVA. Statistical significance in other experiments was assessed using two-way ANOVA or Student's t-test with Bonferroni post-test. All experiments, excluding the tumor experiment, were replicated several times and consistent results obtained.
The skin tumorigenesis experiment was performed in v-ras^Ha transgenic Tg.AC mice because of their enhanced sensitivity to UV-induced skin tumorigenesis (13; 52). […] While the vehicle-treated mice continued to accrue tumors throughout the duration of the experiment, the AG825-treated group reached a plateau in tumor number by 7 weeks after the first UV exposure. By the end of the experiment, mean tumor volume was also 70% less in the AG825-treated group when compared to the vehicle control. Representative tumors from each treatment were examined histologically and all were benign squamous papillomas with similar differentiation status.
Upon activation, Erbb2 heterodimerizes with either EGFR or Erbb3 to transduce signals. Support for the hypothesis that Erbb2 increases skin carcinogenesis comes from our investigations of the functions of its dimerization partner EGFR. A tumor study was conducted to assess the role of EGFR in the clonal expansion of transformed cells to form benign tumors in the skin of v-ras^Ha transgenic Tg.AC mice. Inhibition of EGFR with the tyrphostin inhibitor AG1478 decreased the number of tumors that developed by about 50% in UV-exposed v-rasHa transgenic mice. Mean tumor volume was 80% less upon inhibition of EGFR-mediated signaling when compared to, UV-exposed and vehicle-treated controls.

[3] = test system: Cdc25a; assay: Cdc25a immunoblotting in keratinocytes; assay type: cell-based, mouse; conditions: vs appropriate controls
Procedure: Immunoblotting. Flash frozen skin was ground with a mortar and pestle on dry ice, homogenized in lysis buffer containing 10 mM Tris (pH 7.4), 150 mM NaCl, 10% glycerol, 1% Triton X-100, 1 mM EDTA, Complete Protease Inhibitor Cocktail (Roche, Germany), 1 mM Na3V O4, 1.5 μM EGTA, and 10 μM NaF. Protein was quantified using the Coomassie Brilliant Blue G-250 protein assay (Bio-Rad, Hercules, Calif.). The evenness of loading and transfer was determined by staining with Ponceau S and by actin immunoblotting. […]
Cell culture. […] Transfection efficiency was quantified by determining the proportion of the cells that incorporated the fluorescent Cy3-conjugated siRNA or GFP one day post-transfection. […]
In order to understand how Erbb2 regulates S-phase progression following UV irradiation, signaling pathways known to regulate progression into and through S-phase were examined. […] The effect of abrogation of Erbb2 on Cdc25a occurred post-transcriptionally, since no decrease in Cdc25a mRNA was detected in our microarray analysis using the Erbb2 inhibitor (32). […]

[4] = current Erbb2-targeted therapies; cited from earlier work

Compound: O=c1[nH]cc(F)c(=O)[nH]1 [5-FU, 5-fluorouracil]
- S-phase arrest in keratinocytes by chemotherapeutic agents [1]: cause S-phase arrest

Compound: COc1cc2ncnc(Nc3cccc(Cl)c3)c2cc1OC [AG1478]
- mean tumor volume less than UV-exposed vehicle-treated controls ([2]; EGFR inhibition): 80%
- decrease in the number of tumors that developed ([2]; UV-exposed v-rasHa transgenic mice, EGFR inhibition): about 50%
- UV-induced carcinogenesis (FIG. 6) ([2]; topical treatment 2 h prior to UV irradiation): suppress
- Cdc25a immunoreactivity [3]: not decreased

Compound: COCC(=O)NC/C=C/c1ccc2ncnc(Nc3ccc(Oc4ccc(C)nc4)c(C)c3)c2c1 [CP-724714]
- skin toxicity [4]: Low incidence

Compound: CC[C@@]1(O)C(=O)OCc2c1cc1n(c2=O)Cc2cc3ccccc3nc2-1 [camptothecin]
- S-phase arrest in keratinocytes by chemotherapeutic agents [1]: cause S-phase arrest

Compound: pertuzumab: current Erbb2-targeted therapy
- skin toxicity [4]: Low incidence
